These results are taken from ChEMBL document CHEMBL5137095, “N-Benzyl Benzamide Derivatives as Selective Sub-Nanomolar Butyrylcholinesterase Inhibitors for Possible Treatment in Advanced Alzheimer's Disease” (J Med Chem, 2022).

Experiment [1] has as its system SH-SY5Y. Description: Neuroprotective activity against GA-induced cell damage in human SH-SY5Y cells pretreated for 2 hrs followed by GA addition and measured after 24 hrs by MTT assay. The experiment is classed as functional, cell-based. The settings on record: dose 0.1-5 µM, time 26.0 hrs, DDE = dose-dependent effect.
Experiment [2] concerns Mus musculus. The experiment in a line: Cognitive enhancing effect in amyloid beta (1 to 42)-induced ICR mouse model assessed as reduction in latency at 2.5 mg/kg, icv measured on day 14 by Morris Water maze method. The experiment is classed as functional, organism-based.
Experiment [3] deals with Mus musculus. Description: Cognitive enhancing effect in amyloid beta (1 to 42)-induced ICR mouse model assessed as reduction in latency at 1 mg/kg, icv measured on day 14 by Morris Water maze method. The class given is functional, organism-based.
For experiment [4], the system named is PC-12. The experiment in a line: Neuroprotective activity against H2O2-induced cell damage in rat PC-12 cells at 5 uM pretreated for 2 hrs followed by H2O2 addition and measured after 24 hrs by MTT assay. The class given is functional, cell-based.
Experiment [5] deals with Mus musculus. Description: Cognitive enhancing effect in amyloid beta (1 to 42)-induced ICR mouse model assessed as decrease in TNF-alpha level in brain at 0.5 to 10, icv measured on day 14 by ELISA. The settings on record: dose 0.5-10 mg/kg, time 14.0 day. The class given is functional, organism-based.
Experiment [6] concerns SH-SY5Y. The experiment in a line: Neuroprotective activity against amyloid beta (1 to 42)-induced cell damage in human SH-SY5Y cells assessed as inhibition of ROS level pretreated for 2 hrs followed by amyloid beta (1 to 42) addition and measured after 24 hrs by DCFH-DA staining based fluorescence microscopy analysis. The class given is functional. The following applies: time 26.0 hrs.

The subject of experiment [7] is Mus musculus. Description: Cognitive enhancing effect in amyloid beta (1 to 42)-induced ICR mouse model assessed as reduction in amyloid beta (1 to 42) peptide level in brain administered via icv measured on day 14 by ELISA. The experiment is classed as functional, organism-based. The settings on record: dose 0.5-10 mg/kg, time 14.0 day, DDE = dose-dependent effect.

Experiment [8] relates to Mus musculus. Description: Cognitive enhancing effect in amyloid beta (1 to 42)-induced ICR mouse model assessed as decrease in IFN-gamma level in brain at 0.5 to 10, icv measured on day 14 by ELISA. The experiment is classed as functional, organism-based. The settings on record: dose 0.5-10 mg/kg, time 14.0 day.
Experiment [9] relates to Mus musculus. The experiment in a line: Cognitive enhancing effect in amyloid beta (1 to 42)-induced ICR mouse model assessed as increase in ACh level in brain at 0.5 to 10, icv measured on day 14 by ELISA. The experiment is classed as functional, organism-based. The following applies: dose 0.5-10 mg/kg, time 14.0 day.
Experiment [10] concerns Mus musculus. Description: Cognitive enhancing effect in amyloid beta (1 to 42)-induced ICR mouse model assessed as reduction in escape latency at 0.5 mg/kg, icv measured on day 14 by Morris Water maze method. The class given is functional, organism-based. The following applies: time 14.0 day.
Experiment [11] relates to PC-12. Description: Neuroprotective activity against H2O2-induced cell damage in rat PC-12 cells pretreated for 2 hrs followed by H2O2 addition and measured after 24 hrs by MTT assay. The experiment is classed as functional, cell-based. The settings on record: dose 2.5-10 µM, time 26.0 hrs, DDE = dose-dependent effect.
Experiment [12] has as its system SH-SY5Y. Description: Neuroprotective activity against amyloid beta (1 to 42)-induced cell damage in human SH-SY5Y cells pretreated for 2 hrs followed by amyloid beta (1 to 42) addition and measured after 24 hrs by MTT assay. The following applies: dose 0.5-2 µM, time 26.0 hrs, DDE = dose-dependent effect. The experiment is classed as functional, cell-based.
Experiment [13] deals with Mus musculus. The experiment in a line: Cognitive enhancing effect in amyloid beta (1 to 42)-induced ICR mouse model assessed as reduction in amyloid beta (1 to 42) peptide level in brain at 0.5 to 10 mg/kg, icv measured on day 14 by ELISA. The following applies: dose 0.5-10 mg/kg. The experiment is classed as functional, organism-based.

Activity calls are given as the source filed them. The calls are words filed in the database; no cut-off is given here.

For `CCN(CC)Cc1ccccc1CNC(=O)c1cc(Br)cc(NC(=O)c2ccc(F)cc2)c1`, the Activity entry in the experiment with SH-SY5Y [1] is “Dde”.

Turning to `CCN(C)C(=O)Oc1cccc([C@H](C)N(C)C)c1`, the result with Mus musculus [2] and in the experiment on Mus musculus [3] was Active.

As for `CN(C)Cc1ccccc1CNC(=O)c1cccc(NC(=O)c2cccs2)c1`, the outcome in the experiment with PC-12 [4] was Active.

In the case of `CCCN(CCC)Cc1ccccc1CNC(=O)c1cccc(NC(=O)c2cccs2)c1`, the result with PC-12 [4] was Active.

As for `CCN(CC)Cc1ccccc1CNC(=O)c1cc(C)cc(NC(=O)c2ccc(F)cc2)c1`, the result in the experiment with Mus musculus [5], in the experiment with SH-SY5Y [6], with Mus musculus [8], in the experiment with Mus musculus [9] and in the experiment with Mus musculus [10] was Active. Moreover, the Activity entry with Mus musculus [7] is “Dde”.

As to `CCN(CC)Cc1ccccc1CNC(=O)c1cccc(NC(=O)c2ccc(F)cc2)c1C`, the outcome with SH-SY5Y [6] was Active.

In the case of `CCN(CC)Cc1ccccc1CNC(=O)c1cccc(NC(=O)c2ccc(F)cc2)c1`, the outcome in the experiment on PC-12 [4], with Mus musculus [5], with SH-SY5Y [6], in the experiment with Mus musculus [8], in the experiment with Mus musculus [9] and in the experiment on Mus musculus [10] was Active. In addition, the result in the experiment with Mus musculus [13] was Active. The Activity entry with PC-12 [11] and in the experiment with SH-SY5Y [12] was “Dde” each time.

Consider `COc1ccc2c3c1O[C@H]1C[C@@H](O)C=C[C@@]31CCN(C)C2`, for which the outcome with Mus musculus [2] and in the experiment on Mus musculus [3] was Active.
